From patent publication US20060160775A1, “Combination therapy” (priority 2003, published 2006)

How the values were obtained:
[1] = test system: Human LoVo colorectal carcinoma tumour xenografts; assay: Human LoVo colorectal carcinoma tumour xenografts in nude mice; format: in vivo, athymic (nu/nu genotype) mouse; details: for Number of tumour regressions evident at day 14: groups of nine; for Mean % Inhibition of tumour growth at day 14: vs vehicle control
Protocol: Human LoVo Colorectal Carcinoma Tumour Xenografts in Nude Mice
1×10^7 LoVo tumour cells in 0.1 ml of serum free Dulbecco's Modified Eagle's Medium (DMEM) were injected subcutaneously (s.c.) into the flank of each athymic (nu/nu genotype) mouse. Tumour volumes were assessed by bilateral Vernier caliper measurement and, taking length to be the longest diameter across the tumour and width the corresponding perpendicular, calculated using the formula (length×width)×the square root of (length×width)×(π/6). […] ZD6126 was dissolved in a solution of 0.05% sodium carbonate in physiological saline and administered by intraperitoneal injection at 0.1 ml/10 g body weight. […] Inhibition of tumour growth from the start of treatment was assessed on day 14 by comparison of the differences in tumor volume between control and treated groups. In addition, the number of tumour regressions following 14 days of treatment was ascertained (tumour regression being evident if the tumour volume at day 14 was smaller than the pre-treatment value on day 0).

tumour models = assay: Anti-tumour activity in a range of models; format: in vivo; details: once-daily oral administration
tumour vasculature = details: in vivo; cited from earlier work
[2] = AZD2171 alone, 3 mg/kg/day, days 0-14, p.o.
[3] = ZD6126 alone, 100 mg/kg/day, days 0-2, i.p.

Structure (SMILES) | Number of tumour regressions evident at day 14 [1, 2] | Mean % Inhibition of tumour growth at day 14 [1, 2] | Anti-tumour activity (tumour models) | Effect on tumour vasculature (tumour vasculature) | Number of tumour regressions evident at day 14 [1, 3] | Mean % Inhibition of tumour growth at day 14 [1, 3]
COc1cc2c(Oc3ccc4[nH]c(C)cc4c3F)ncnc2cc1OCCCN1CCCC1 [AZD2171, 4-(4-fluoro-2-methylindol-5-yloxy)-6-methoxy-7-(3-(pyrrolidin-1-yl)propoxy)quinazoline] | 0/9 | 62% (P < 0.001) | broad-spectrum anti-tumour activity | – | – | –
COc1cc2c(c(OC)c1OC)-c1ccc(OP(=O)(O)O)cc1[C@@H](NC(C)=O)CC2 [ZD6126, (5S)-5-(acetylamino)-9,10,11-trimethoxy-6,7-dihydro-5H-dibenzo[a,c]cyclohepten-3-yl dihydrogen phosphate] | – | – | – | selectively disrupts tumour vasculature leading to vessel occlusion and extensive tumour necrosis | 1/9 | 65% (P < 0.001)
